From patent US20220370463A1, “STABILIZED C-FMS INTRACELLULAR FRAGMENTS (FICD) PROMOTE OSTEOCLAST DIFFERENTIATION AND ARTHRITIC BONE EROSION” (New York Society for the Relief of the Ruptured and …, priority 2019, published 2022)
Entries after “also recorded” stand apart in the source; their conditions may differ.

Experiments:
[1] = tested on: soluble c-FMS (ectodomain shedding of c-FMS); test: Soluble c-FMS in culture media of human CD14+ cells, ELISA; format: cell-based; settings: BB94 10 uM for 2 days after 8 hours M-CSF (20 ng/ml)
Description: FIGS. 8A-8I show c-FMS expression in synovial macrophages. (A) The levels of M-CSF in synovial fluids from patients with rheumatoid arthritis (RA, n=13) and osteoarthritis (OA, n=8) were measured. (B) Mass spectrometry analysis for proteins from ˜50 kDa bands (red box) identified c-FMS as one of top genes. An image of coomassie blue stained genes showing immunoprecipitated cells lysates with either anti-DDK-tag antibodies or IgG control. (C-G) Human CD14+ cells were cultured with M-CSF (20ng/ml). Immunoblot of c-FMS with different antibodies against C-terminal of c-FMS; (C) C-20, (D) D-8, and (E) #3152. Immunoblot of c-FMS with different antibodies against N-terminal of c-FMS; (F) #61701, (G) H-300. (H-I) Human CD14+ cells were cultured with M-CSF (20 ng/ml) for 8 hours to induce early signals, and then BB94 (10 uM) was added for 2 days. […] (I) Soluble c-FMS was detected by ELISA (n=3). […]
c-FMS and M-CSF in synovial fluids and the supernatants of cell culture was measured using sandwich ELISA kit (R&D Systems; DY329 and DY216) according to manufacturer's instructions. C-telopeptide of type I collagen (CTX-1) and Procollagen 1 N-Terminal Propeptide (P1NP) in Serum from WT and FICDtg^M mice were measured using RatLapstm EIA kit (Immunodiagnostic Systems; AC-06F1) or P1NP-ELISA kit (Cloud-Clone corp; SEA957Mu) according to the manufacturer's instructions.

[2] = tested on: FICDs (c-FMS intracellular fragments); test: FICD generation in M-CSF-cultured human CD14+ cells, immunoblot of whole lysates; format: cell-based; settings: BB94 10 uM for 2 days after 8 hours M-CSF (20 ng/ml)
Description: FIGS. 8A-8I show c-FMS expression in synovial macrophages. (A) The levels of M-CSF in synovial fluids from patients with rheumatoid arthritis (RA, n=13) and osteoarthritis (OA, n=8) were measured. (B) Mass spectrometry analysis for proteins from ˜50 kDa bands (red box) identified c-FMS as one of top genes. An image of coomassie blue stained genes showing immunoprecipitated cells lysates with either anti-DDK-tag antibodies or IgG control. (C-G) Human CD14+ cells were cultured with M-CSF (20ng/ml). Immunoblot of c-FMS with different antibodies against C-terminal of c-FMS; (C) C-20, (D) D-8, and (E) #3152. Immunoblot of c-FMS with different antibodies against N-terminal of c-FMS; (F) #61701, (G) H-300. (H-I) Human CD14+ cells were cultured with M-CSF (20 ng/ml) for 8 hours to induce early signals, and then BB94 (10 uM) was added for 2 days. (H) Immunoblot with anti c-FMS and α-tubulin antibodies in whole lysates (n=3). (I) Soluble c-FMS was detected by ELISA (n=3). […] All data are shown as mean±SEM. *; p<0.05 significant by two-tailed, paired t-test (A and I). M: mature form, I: immature form, H: hgh mass, L: low mass.
FIGS. 10A-10F show calpain regulates FICD generation. (A and B) Human CD14+ cells were cultured with M-CSF (20 ng/ml) for 8 hours to induce early signals and then (A) MDL 28170(0, 1, 2, 5 uM) or (B) PD150606 (0, 2, 5 uM) was added for 2 days. […]

[3] = tested on: FICD (mem, H-FICD, L-FICD); test: FICD in membrane, cytoplasmic and nuclear fractions of human OCPs, immunoblot; format: cell-based; settings: for generation of H-FICD and L-FICD and cellular distribution of FICDs: human CD14+ cells stimulated with ligand (20 ng/ml)
Description: (a) Human CD14+ cells were cultured with M-CSF (20 ng/ml) for 8 hours to induce early signals and then DAPT (10uM) was added for 2 days. Protein expression of c-FMS, Na+K+ pump, Lamin B1 and α-tubulin, as determined by immunoblot. ME; membrane extracts, CE; cytoplasmic extracts, and NE; nuclear extracts. (b) Immunohistochemistry of DAPI and c-FMS [middle]. […] Scale: 200×. (c) Cells were starved for three hours and then stimulated with M-CSF for the indicated times. (d and e) Cells were treated with Imatinib (0.3 μM, d) or c-FMS blocking antibody (5 μg) prior to the addition of M-CSF. Protein expression of FICD was measured by immunoblot. Lamin B1 and α-tubulin were used as controls for nuclear and cytoplasmic fractions, respectively. (f) Human CD14+ cells were cultured with M-CSF (20 ng/ml) for 8 hours to induce early signals and then MDL 28170(5 uM). Immunoblot with anti c-FMS and Lamin B1 antibodies. (g and h) Calpain 1, 5, and 6 were knocked down with siRNAs. Cells were cultured with M-CSF for 12 hours. (g) Efficiency of knockdown of Calpain 1, 5, and 6. (h) Immunoblot of c-FMS and Lamin B1. All data are shown as mean±SEM. *,p<0.05 by two-tailed, unpaired t-test (g). Representative results from at least three independent experiments.
(A and B) Human CD14+ cells were cultured with M-CSF (20 ng/ml) for 8 hours to induce early signals and then (A) MDL 28170(0, 1, 2, 5 uM) or (B) PD150606 (0, 2, 5 uM) was added for 2 days. Immunoblot with anti c-FMS and α-tubulin antibodies in whole lysates(n=3). (C) Immunoblot of nuclear lysates with c-FMS and Lamin B1 antibodies. Cells were cultured with M-CSF for 12 hours, and then M-CSF was removed. Cells were subsequently treated with or without CaCl2 (10 mM) for an additional 24 hours. (D) Osteoclastogenesis assay. Human CD14+ cells were cultured with M-CSF, RANKL and MDL28170 for 4 days. […] Black scale bar is 100 μm. […] First two calpain cleavage sites in cytoplasmic domains of c-FMS were used for FICD constructs. (F) A schematic diagram of a FICD construct. Representative results from at least three independent experiments.
Whole cell extracts were prepared by lysis in buffer containing 1× Lamin sample buffer (Bio-rad) and 2-Mercaptoethanol (Sigma) or RIPA buffer (Sigma). The cell membrane-permeable protease inhibitor, Pefablock (1 mM), was added immediately prior to harvest cells. The membrane proteins were extracted with Mem-PER™ Plus Membrane Protein Extraction Kit (Thermorfisher scientific; 89842) according to manufacturer's instructions. To extracts of nucleus protein, cells were incubated in buffer A (10 mM Hepes, pH 7.9, 1.5 mM MgCl2, 10 mM KCl, 0.1 mM EDTA, 0.1 mM EGTA, proteinase inhibitor cocktail (Complete, Roche) and 1 mM DTT) for 15 min at 4° C. NP-40 was added to a final concentration of 0.5%. Nucleus was collected by centrifugation (5000 rpm, 5 min). The pellets were lysed by Bioruptor-ultrasonicator (UCD400, Diagenode) in buffer B (20 mM Hepes, pH 7.9, 0.4M NaCl, 10 mM KCl, 1 mM EDTA, 1 mM EGTA, 10% Glycerol, proteinase inhibitor cocktail and 1 mM DTT) and collected the supernatant by centrifugation (12,000 rpm, 10 min). The protein concentration of nuclear extracts was quantitated using the Bradford assay (Bio-Rad; 5000001). For immunoblot, proteins were separated on 7.5 or 10% SDS-PAGE gels, transferred to polyvinylidene difluoride membranes (PVDF, Millipore; ISEQ00010), and detected by antibodies as listed in the figure legends.

L-FICD generation = test: Screening of 53 protease inhibitors from a protease library for L-FICD generation; format: cell-based
Text: To identify the protease(s) responsible for cleavage of H-FICD in an unbiased manner, we performed a screening of 53 protease inhibitors using a protease library. The best hits associated with the inhibition of L-FICD generation were MDL28170 and PD150606—two calpain inhibitors—along with MMP inhibitors and γ-secretase inhibitors. Calpain is the family of calcium-dependent cytosolic cysteine proteases expressed ubiquitously in mammals and many other organisms (Pfaff, M., Du, X. & Ginsberg, M. H. Calpain cleavage of integrin beta cytoplasmic domains. FEBS Lett 460, 17-22 (1999)), and calpain-dependent cleavages contribute to modulating various cellular functions such as apoptosis, proliferation and migration (Deshpande, R. V. et al. Calpain expression in lymphoid cells. Increased mRNA and protein levels after cell activation. J Biol Chem 270, 2497-2505 (1995). Svensson, L. et al. Calpain 2 controls turnover of LFA-1 adhesions on migrating T lymphocytes. PloS one 5, e15090, doi:10.1371/journal.pone.0015090 (2010).). […] Since calpain is activated by calcium, we examined if calcium signaling could compensate for M-CSF signaling to generate FICDs. In the absence of c-FMS signaling, calcium signaling was able to promote the cleavage of […] in the nucleus, and […] reversed the effect of calcium signaling on L-FICD processing (FIG.10C). […]

arthritic bone erosion = settings: rheumatoid arthritis patients; cited from earlier work
[4] = DAPT 10uM for 2 days after 8 hours M-CSF (20 ng/ml)

CNC(=O)[C@H](Cc1ccccc1)NC(=O)[C@H](CC(C)C)[C@H](CSc1cccs1)C(=O)NO [BB94]
ectodomain shedding of c-FMS, soluble c-FMS in the media [1]: inhibited the ectodomain shedding of c-FMS; also recorded: inhibited the shedding of c-FMS and diminished soluble c-FMS in the media | generation of FICDs [2]: suppressed the generation of FICDs

C[C@H](NC(=O)Cc1cc(F)cc(F)c1)C(=O)N[C@H](C(=O)OC(C)(C)C)c1ccccc1 [DAPT, N-[N-(3,5-difluorophenacetyl)-L-alanyl]-S-phenylglycine t-butyl ester]
cytosol and nuclear FICDs [3, 4]: suppressed | membrane-bound FICD [3, 4]: membrane-bound FICD accumulated

O=C(O)/C(S)=C/c1ccc(I)cc1 [PD150606]
inhibition of L-FICD generation (hit in screening) (L-FICD generation): best hits

denosumab: an anti-RANKL antibody
RA disease activity (arthritic bone erosion): without affecting | progression of arthritic bone erosion (arthritic bone erosion): shows efficacy

B1: M-CSF: ligand for c-FMS (protein, UniProt P09603 33-554, looked up)
Macrophage colony-stimulating …: EEVSEYCSHMIGSGHLQSLQRLIDSQMETSCQITFEFVDQEQLKDPVCYLKKAFLLVQDIMEDTMRFRDNTPNAIAIVQLQELSLRLKSCFTKDYEEHDKACVRTFYETPLQLLEKVKNVFNETKNLLDKDWNIFSKNCNNSFAECSSQDVVTKPDCNCLYPKAIPSSDPASVSPHQPLAPSMAPVAGLTWEDSEGTEGSSLLPGEQPLHTVDPGSAKQRPPRSTCQSFEPPETPVVKDSTIGGSPQPRPSVGAFNPGMEDILDSAMGTNWVPEEASGEASEIPVPQGTELSPSRPGGGSMQTEPARPSNFLSASSPLPASAKGQQPADVTGTALPRVGPVRPTGQDWNHTPQKTDHPSALLRDPPEPGSPRISSLRPQGLSNPSTLSAQPQLSRSHSSGSVLPLGELEGRRSTRDRRSPAEPEGGPASEGAARPLPRFNSVPLTDTGHERQSEGSFSPQLQESVFHLLVPSVILVLLAVGGLLFYRWRRRSHQEPQRADSPLEQPEGSPLTQDDRQVELPV
generation of H-FICD and L-FICD and cellular distribution of FICDs [3]: induced

B2: IL-34: ligand for c-FMS (protein, UniProt Q6ZMJ4 21-242, looked up)
Interleukin-34: NEPLEMWPLTQNEECTVTGFLRDKLQYRSRLQYMKHYFPINYKISVPYEGVFRIANVTRLQRAQVSERELRYLWVLVSLSATESVQDVLLEGHPSWKYLQEVETLLLNVQQGLTDVEVSPKVESVLSLLNAPGPNLKLVRPKALLDNCFRVMELLYCSCCKQSSVLNWQDCEVPSPQSCSPEPSLQYAATQLYPPPPWSPSSPPHSTGSVRPVRAQGEGLLP
generation of H-FICD and L-FICD and cellular distribution of FICDs [3]: induced
